Laboratory results from article PMC12706802, “Ortho-Hydroxyanilides: Slow-Acting, Selective Histone Deacetylase 1/2 Inhibitors Suitable for Photocaging Applications” (ACS Pharmacology & Translational Science, 2025).
Like-named read-outs stand apart in the source and are kept apart here.

Assays:
[1] = test system: HDACs in MDA-MB-231 cells; assay: HDAC whole cell inhibition assay; conditions: Homo sapiens, MDA-MB-231, light or radiation study, 18 h, read-out: whole-cell HDAC inhibition EC50, MDA-MB-231
[2] = test system: HDACs in MM.1S cells; assay: HDAC whole cell inhibition assay; conditions: Homo sapiens, MM1.S, read-out: whole-cell HDAC inhibition EC50, MM.1S
[3] = test system: MM.1S cells; assay: CellTiter-Glo 2.0 cell viability assay; assay type: cell-based; conditions: Homo sapiens, MM1.S; 120 h incubation
Method: (§1) To evaluate the cytotoxicity of the selected HDAC inhibitors, compounds were tested for their antiproliferative activity against MV-3 and MDA-MB-231 cells using the MTT assay. […] (Promega; Walldorf, Germany) was utilized to assess the antiproliferative effects. MM.1S and HEK293 cells were seeded at a density of 1000 cells per well in 384-well plates, with each well containing 22.5 μL of volume. […] Subsequently, cells were stimulated with 2.5 μL of the dilution series of the test compounds. Following compound exposure, the plates were incubated for 120 h in the incubator set at 37 °C with 5% CO2. Post 120 h of incubation, 25.0 μL of CellTiter-Glo reagent was dispensed into each well and the plates were incubated at the room temperature for 10 min. Luminescence was then measured using a Spark multimode microplate reader (Tecan Group AG, Maennedorf, Swiss). Data were normalized against controls: wells treated with 0.5% DMSO were set as 100% viable, while those treated with 10% DMSO were considered completely nonviable (0% viability).

[4] = test system: HEK293 cells; assay: CellTiter-Glo 2.0 cell viability assay; assay type: cell-based; conditions: Homo sapiens; for EC50: 120 h incubation, nontumorigenic cell line
Method: as §1

[5] = biological target: HDAC1 (Homo sapiens, UniProt Q13547); assay: Binding kinetics via the progression method (continuous HDAC assay); assay type: biochemical; design: purchased BPS Bioscience Inc. #50051; conditions: 45 min, 28 °C
Chain of HDAC1 (Homo sapiens, UniProt Q13547) (Q13547 whole entry): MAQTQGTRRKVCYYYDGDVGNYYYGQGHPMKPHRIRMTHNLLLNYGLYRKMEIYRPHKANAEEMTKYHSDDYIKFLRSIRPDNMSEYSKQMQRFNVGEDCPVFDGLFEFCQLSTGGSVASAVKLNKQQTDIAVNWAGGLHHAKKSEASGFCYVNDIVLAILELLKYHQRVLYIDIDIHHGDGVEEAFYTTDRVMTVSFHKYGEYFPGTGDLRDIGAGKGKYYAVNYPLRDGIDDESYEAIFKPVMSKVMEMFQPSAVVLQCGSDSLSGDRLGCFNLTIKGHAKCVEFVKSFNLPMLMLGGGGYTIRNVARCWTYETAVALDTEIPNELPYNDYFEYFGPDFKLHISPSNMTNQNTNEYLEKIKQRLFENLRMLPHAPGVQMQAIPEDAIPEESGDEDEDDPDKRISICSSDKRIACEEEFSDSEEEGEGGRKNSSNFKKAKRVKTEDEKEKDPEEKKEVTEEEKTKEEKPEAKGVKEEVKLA
Method: To this end, HDAC1, the substrate, and trypsin were incubated directly with the inhibitor at various concentrations and fluorescence was recorded continuously for 45 min. […] By plotting the ratio of the deacetylation rate in the presence of the inhibitor (v i) to the rate in absence of any inhibitor (v 0) as a function of the inhibitor concentration and fitting the data to an appropriate model (eq 3), the equilibrium […] K i was determined (Figure ).
To investigate the binding mode of both compounds, we performed molecular docking studies. Specifically, ST13 was docked into HDAC2 (PDB ID: 3MAX), a cocrystal structure containing an HDAC inhibitor with an ortho-aminoanilide ZBG and a phenyl group as the FPU.
Appropriate test compound concentrations were chosen based on the previously determined IC50 values. […] Each progression curve was fitted to either obtain the apparent first-order rate constant k obs (eq ) or the linear conversion rates v i and v 0 (eq ). For fast-on/fast-off inhibitors, the ratio v i/v 0 was plotted against the corresponding inhibitor concentrations.

[6] = test system: MV-3 cells; assay: MTT cell viability (antiproliferative) assay; assay type: cell-based, human; conditions: for EC50: Homo sapiens, read-out: MV-3 EC50 (MTT); for viability reduction, MV-3 (MTT): at 15 μM, 72 h
Method: (§2) To evaluate the cytotoxicity of the selected HDAC inhibitors, compounds were tested for their antiproliferative activity against MV-3 and MDA-MB-231 cells using the MTT assay. […] MTT (3-(4,5-dimethylthiazol-2-yl)-2,5-diphenyltetrazolium bromide; Catalog# A2231; BioChemica, Applichem GmbH, Darmstadt, Germany) was utilized to measure the antiproliferative effect. Depending on the incubation time, 3000 MV-3 cells (72 h), 2000 MV-3 cells (96 h) or 1000 MV-3 cells (120 h) per well were seeded in 96-well plates (Starlab GmbH, Hamburg, Germany) with each well containing 199 μL of volume. […] Next, predilutions of the test compounds were prepared in DMSO. […] Subsequently, cells were treated with 1.0 μL of the dilution series of the test compounds. […] After removing the supernatant, formazan was solubilized in 200.0 μL DMSO. The absorbance was measured at 570 nm with background subtraction at 690 nm using a Multiskan microplate photometer (Thermo Fisher Scientific, Waltham, MA, USA). The obtained data were normalized to PBS, considering 100% viability.

[7] = test system: HDAC1; conditions: cited from earlier work
[8] = test system: MDA-MB-231 cells; assay: MTT cell viability (antiproliferative) assay; assay type: cell-based; conditions: Homo sapiens
Method: as §2

[9] = test system: Ac-α-tubulin (HDAC6); assay: Immunoblot analysis of MV-3 cell lysates; assay type: cell-based, human; conditions: MV-3, 5 μM, 24–72 h
[10] = test system: HDACs in HEK293 cells; assay: HDAC whole cell inhibition assay; conditions: Homo sapiens, HEK293, read-out: whole-cell HDAC inhibition EC50, HEK293
[11] = test system: HDACs in MV-3 cells; assay: HDAC whole cell inhibition assay; conditions: Homo sapiens, MV-3, light or radiation study, 18 h, read-out: whole-cell HDAC inhibition EC50, MV-3
[12] = MV-3, light or radiation study, incubation time 120 h, no irradiation
[13] = MDA-MB-231, light or radiation study, incubation time 120 h, no irradiation
[14] = MDA-MB-231, incubation time 96 h

| SMILES | EC50 [1] [nM] | EC50 [2] [nM] | EC50 [3] [nM] | EC50 [4] [nM] | binding mechanism at HDAC1 (progression curves, kobs versus inhibitor concentration) [5] | EC50 [6, 12] [nM] | EC50 ([6]; MV-3, incubation time 96 h) [nM] | viability reduction, MV-3 (MTT) [6] [%] | IC50 ([7]; literature value for Cpd-60, ref number not given) [nM] | EC50 [8, 13] [nM] | EC50 [8, 14] [nM] | acetylation level of α-tubulin (immunoblot) [9] | EC50 [10] [nM] | EC50 [11] [nM] | inhibition at 5 µM ([4]; at 5.00 μM, 120 h, read-out: inhibition at the stated concentration, HEK293 (CellTiter-Glo)) [%] | IC50 ([7]; previously described, ref Methot et al.) [nM] |
| --- | --- | --- | --- | --- | --- | --- | --- | --- | --- | --- | --- | --- | --- | --- | --- | --- |
| CC(=O)Nc1ccc(C(=O)Nc2cc(-c3cccs3)ccc2N)cc1 [Cpd-60, reference compound] | 87 ± 8 | 111 ± 38 | 111 | 1500 | induced fit slow-binding mechanism | 370 ± 40 | 2340 ± 790 | < 25 | 7 | 890 ± 250 | 3210 ± 1010 | absence of HDAC6 inhibition | 178 ± 23 | 97 ± 26 | – | – |
| CC(=O)Nc1ccc(C(=O)Nc2cc(-c3ccccc3)ccc2O)cc1 [ST13, 4-Acetamido-N-(4-hydroxy-[1,1′-biphenyl]-3-yl)-benzamide] | 577 ± 97 | 637 ± 158 | 198 | > 5000 | induced fit slow-binding mechanism | 2770 ± 880 | 7940 ± 1360 | < 25 | – | 4870 ± 860 | 13900 ± 3400 | absence of HDAC6 inhibition | 333 ± 64 | 311 ± 47 | < 25 | 18 |
